Data taken from ChEMBL document CHEMBL5543109, “Novel β-Hairpin Antimicrobial Peptide Containing the β-Turn Sequence of -NG- and the Tryptophan Zippers Facilitate Self-Assembly into Nanofibers, Exhibiting Excellent Antimicrobial Performance” (J Med Chem, 2024).
Converted amounts (≈) assume the structure as drawn. The source made the active and inactive calls. The rule behind the calls is not given here.

Key:
Cell membrane [1] = assay: Induction of cell membrane disruption in Escherichia coli assessed as PI uptake incubated for 2 hrs by PI staining based confocal laser scanning microscopy; type: cell membranes
Staphylococcus aureus [2] = assay: Additive antibacterial activity against Staphylococcus aureus assessed as fractional inhibitory concentration index incubated for 18 hrs in presence of polymyxin B by checkerboard assay; type: functional
Escherichia coli [3] = assay: Additive antibacterial activity against rifampicin resistant Escherichia coli assessed as fractional inhibitory concentration index incubated for 18 hrs in presence of rifampin by checkerboard assay; type: functional
Cell membrane [4] = assay: Induction of outer membrane permeabilization in Escherichia coli at 1/2 MIC measured immediately by NPN-dye based assay; type: cell membranes
Staphylococcus aureus [5] = assay: Synergistic antibacterial activity against methicillin resistant Staphylococcus aureus assessed as fractional inhibitory concentration index incubated for 18 hrs in presence of kanamycin by checkerboard assay; type: functional
Staphylococcus aureus [6] = assay: Antibacterial activity against Staphylococcus aureus 794 infected in BALB/c mouse skin wound infection model assessed as reduction in TNFalpha level at 1 mg/ml, ip pre-infected with bacteria for 24 hrs followed by compound addition and measured after 13 days post infection in presence of vancomycin; type: functional, organism-based; details: time 12.0 day
[7] = Toxicity in BALB/c mouse infected with Staphylococcus aureus 794 assessed as increase in number of sweat glands at 1 mg/ml, ip pre-infected with bacteria for 24 hrs followed by compound addition and measured after 13 days by H and E staining based histopathological analysis; type: organism-based; details: in vivo, 312 h, time 13 day
Staphylococcus aureus [8] = assay: Antibacterial activity against Staphylococcus aureus incubated for 18 hrs by broth microdilution method; type: functional
Staphylococcus aureus [9] = assay: Additive antibacterial activity against Staphylococcus aureus 794 assessed as fractional inhibitory concentration index incubated for 18 hrs in presence of gentamycin by checkerboard assay; type: functional
Staphylococcus aureus [10] = assay: Induction of morphological change in Staphylococcus aureus assessed as morphological distortion at 2 times MIC incubated for 30 mins by SEM analysis; type: functional, organism-based
Escherichia coli [11] = assay: Antibacterial activity against Escherichia coli infected in BALB/c mouse systemic infection model assessed as reduction in lung bacterial load at 5 to 10 mg/kg, ip measured after 24 hrs; type: functional, organism-based; details: dose 5-10 mg/kg
Escherichia coli [12] = assay: Antibacterial activity against Escherichia coli ATCC 25922 incubated for 18 hrs by broth microdilution method; type: functional
Staphylococcus aureus [13] = assay: Synergistic antibacterial activity against kanamycin resistant Staphylococcus aureus assessed as fractional inhibitory concentration index incubated for 18 hrs in presence of rifampin by checkerboard assay; type: functional
Erythrocyte = assay: Hemolytic activity in mouse erythrocytes assessed as concentration required to cause 10% hemolysis incubated for 1 hr; type: toxicity, cell-based
Klebsiella pneumoniae = assay: Synergistic antibacterial activity against Klebsiella pneumoniae assessed as fractional inhibitory concentration index incubated for 18 hrs in presence of rifampin by checkerboard assay; type: functional
[14] = Self-assembly property of compound in PBS assessed as beta-sheet nanofibers formation incubated for 1 hr by Thioflavin T based fluorescence spectrophotometer analysis; type: physicochemical; details: buffer, dose 0.5-1.5 µM
[15] = Toxicity in BALB/c mouse infected with Staphylococcus aureus 794 assessed as increase in hair follicles at 1 mg/ml, ip pre-infected with bacteria for 24 hrs followed by compound addition and measured after 13 days by H and E staining based histopathological analysis; type: organism-based; details: in vivo, 312 h, time 13 day
Staphylococcus aureus [16] = assay: Antibacterial activity against Staphylococcus aureus 794 infected in BALB/c mouse skin wound infection model assessed as reduction in wound area at 1 mg/ml, ip pre-infected with bacteria for 24 hrs followed by compound addition and measured on day 5 in presence of vancomycin; type: functional, organism-based; details: time 5.0 day
Pseudomonas aeruginosa = assay: Induction of morphological change in Pseudomonas aeruginosa assessed as bacterial swelling at 2 times MIC incubated for 30 mins by SEM analysis; type: functional, organism-based
Staphylococcus aureus [17] = assay: Antibacterial activity against Staphylococcus aureus S794 incubated for 18 hrs by broth microdilution method; type: functional
Staphylococcus aureus [18] = assay: Antibacterial activity against Staphylococcus aureus incubated for 18 hrs in presence of ZnCl2 by broth microdilution method; type: functional, organism-based
Staphylococcus aureus [19] = assay: Antibacterial activity against Staphylococcus aureus ATCC 25923 incubated for 18 hrs by broth microdilution method; type: functional
Staphylococcus aureus [20] = assay: Additive antibacterial activity against Staphylococcus aureus 125 assessed as fractional inhibitory concentration index incubated for 18 hrs in presence of ciprofloxacin by checkerboard assay; type: functional
Bacillus subtilis = assay: Bactericidal activity against Bacillus subtilis ATCC 23857 incubated for 18 hrs by broth microdilution method; type: functional
[21] = Acute toxicity in ip dosed mouse by karber method; type: organism-based; details: in vivo, read-out: LD50
Staphylococcus aureus [22] = assay: Antibacterial activity against Staphylococcus aureus 794 infected in BALB/c mouse skin wound infection model assessed as reduction in wound bacterial load at 1 mg/ml, ip administered at 1 hr interval for total 6 treatment and measured after 1 hr post last dose in presence of vancomycin; type: functional, organism-based; details: time 7.0 hrs
Escherichia coli [23] = assay: Antibacterial activity against Escherichia coli infected in BALB/c mouse systemic infection model assessed as reduction in kidney bacterial load at 5 to 10 mg/kg, ip measured after 24 hrs; type: functional, organism-based; details: dose 5-10 mg/kg
Staphylococcus aureus [24] = assay: Induction of morphological change in Staphylococcus aureus assessed as bacterial lysis at 2 times MIC incubated for 30 mins by SEM analysis; type: functional, organism-based

NCCCC[C@@H](NC(=O)[C@H](N)Cc1c[nH]c2ccccc12)C(=O)N[C@H](Cc1c[nH]c2ccccc12)C(=O)N[C@H](CCCCN)C(=O)N[C@H](Cc1c[nH]c2ccccc12)C(=O)N[C@@H](CC(N)=O)C(=O)NCC(=O)N[C@H](Cc1c[nH]c2ccccc12)C(=O)N[C@H](CCCCN)C(=O)N[C@H](Cc1c[nH]c2ccccc12)C(=O)N[C@H](CCCCN)C(=O)N[C@H](Cc1c[nH]c2ccccc12)C(N)=O
Activity (Cell membrane [1]): Dose-Dependent Effect | fractional inhibitory concentration index (FICI) (Staphylococcus aureus [2]): 1 | fractional inhibitory concentration index (FICI) (Escherichia coli [3]): 0.563 | Activity (Cell membrane [4]): 40% | fractional inhibitory concentration index (FICI) (Staphylococcus aureus [5]): 0.313 | Activity (Staphylococcus aureus [6]): Active | Activity [7]: Toxic | MIC (Staphylococcus aureus [8]): 4 µM (≈ 7.27 µg/mL) | fractional inhibitory concentration index (FICI) (Staphylococcus aureus [9]): 0.563 | Activity (Staphylococcus aureus [10]): Active | Activity (Escherichia coli [11]): Active | MIC (Escherichia coli [12]): 8 µM (≈ 14.5 µg/mL) | fractional inhibitory concentration index (FICI) (Staphylococcus aureus [13]): 0.313 | MHC (Erythrocyte): > 512 µM | fractional inhibitory concentration index (FICI) (Klebsiella pneumoniae): 0.5 | Activity [14]: Dose-Dependent Effect | Activity [15]: Toxic | Activity (Staphylococcus aureus [16]): Active | Activity (Pseudomonas aeruginosa): Active | MIC (Staphylococcus aureus [17]): 8 µM (≈ 14.5 µg/mL) | Activity (Staphylococcus aureus [18]): Active | MIC (Staphylococcus aureus [19]): 4 µM (≈ 7.27 µg/mL) | fractional inhibitory concentration index (FICI) (Staphylococcus aureus [20]): 1 | MBC (Bacillus subtilis): 4 µM (≈ 7.27 µg/mL) | LD50 [21]: 230 mg/kg | Activity (Staphylococcus aureus [22]): Active | Activity (Escherichia coli [23]): Active | Activity (Staphylococcus aureus [24]): Active
